Data published in US20250064750A1, “LIPID AND COMPOSITION USED FOR DELIVERY” (JIANGSU HENGRUI PHARMACEUTICALS CO., LTD., priority 2021, published 2025).
Read-outs that look alike come from different tables or passages of the source.

How the values were obtained:
in vivo = conditions: female, BALB/c, mouse, 0.5 mg/kg
Description: (§2) To evaluate the targeting in liposomal nanoparticles' in vivo delivery, liposomal nanoparticles with mRNA for expression of hepatocyte growth factor encapsulated therein were injected into the tail veins of 6-8 week old female BALB/c mice at a dose of 0.5 mg/kg. Plasma, liver, and spleen samples were collected at 1 hour, 2 hours, 4 hours, 6 hours, 24 hours, and 48 hours after injection of the lipid nanoparticles, and the concentrations of cationic lipid molecules in the plasma samples at the corresponding time points were determined by LC-MS mass spectrometry to evaluate the metabolism and in vivo clearance rate of the lipid nanoparticles. For the lipid nanoparticles to which each compound corresponds, at least 3 biological replicates were used, and the mean cationic lipid concentrations in the tissues were calculated.
(§3) Based on pharmacokinetic parameters, the half-lives of the cationic lipids in the tissues were calculated.

[1] = system: hepatocyte growth factor protein; assay: In vivo mRNA delivery by intramuscular injection, hepatocyte growth factor protein expression by ELISA; design: species or system BALB/c mice; conditions: HGF mRNA lipid nanoparticles, 0.05 mg/kg; for Mean protein expression level: thigh muscle injection, muscle tissue after 24 hours
Description: After 24 hours, the muscle tissue at the injection site was collected, ground, and lysed. The expression level of hepatocyte growth factor protein (pg/mg), i.e., the hepatocyte growth factor protein amount to which the unit muscle tissue total protein amount corresponds, was then measured using an ELISA kit.
With the liposomal nanoparticles to which comparative compound 1 corresponds as a control, the intramuscular injection in vivo mRNA delivery efficiency of the liposomal nanoparticles to which compounds 1 and 2 correspond was measured.

luciferase protein = assay: Tail vein injection in vivo mRNA delivery efficiency, whole-body luciferase fluorescence intensity (IVIS); design: species or system BALB/c mice; conditions: 0.5 mg/kg, 6 hours; for Fluorescence intensity level (p/s): whole body
Description: After 6 hours, the luciferase substrate was injected intraperitoneally into each mouse. Fluorescence images of the mice were captured using an IVIS small animal optical in vivo imaging system (PerkinElme), and the whole-body fluorescence intensity of the mice was recorded. The level of fluorescence intensity reflects the expression level of luciferase protein, i.e., the in vivo mRNA delivery efficiency of the liposomal nanoparticles. […] In FIG. 2, the fluorescence intensity refers to the whole-body fluorescence intensity of the mice recorded using the IVIS small animal optical in vivo imaging system. The level of fluorescence intensity reflects the expression level of luciferase protein, i.e., the in vivo mRNA delivery efficiency of the lipid nanoparticles.
With the liposomal nanoparticles to which comparative compound 1 corresponds as a control, the mouse tail vein injection in vivo mRNA delivery efficiency of the liposomal nanoparticles to which compound 1, compound 3, and compound 4 correspond was measured.

interleukin 6 (IL-6) = assay: In vivo immunogenicity: serum IL-6 concentration by ELISA after tail vein injection; design: species or system BALB/c mice; conditions: 0.5 mg/kg, 6 hours
Description: When exogenous substances enter the bodies of mammals, they induce an innate immune response, thereby promoting the production of cytokines. These exogenous substances can cause inflammatory reactions after entry into the body, which easily give rise to adverse reactions such as fever and edema in the body. The immunogenicity of lipid nanoparticles in the body was therefore evaluated by evaluating the concentration of a cytokine such as interleukin 6 (IL-6) in the blood of mice injected with lipid nanoparticles. Lower cytokine concentrations indicate that the lipid nanoparticles have lower immunogenicity, which means that they are biologically safer.
After 6 hours, blood was collected and serum was isolated. The IL-6 concentration in the serum was measured using a mouse IL-6 ELISA kit.

[2] = Tissue targeting: cationic lipid concentrations in liver and spleen after tail vein injection, LC-MS; format: in vivo, BALB/c mice; conditions: 0.5 mg/kg; for AUC(0-t): female, BALB/c, mouse, intravenous, HGF mRNA lipid nanoparticles
Description: Based on pharmacokinetic parameters, the total cationic lipid concentrations in the tissues 48 hours after administration were calculated to evaluate the distribution of lipid nanoparticles in the liver and spleen.

[3] = Liposome encapsulation efficiency, Quant-iT RiboGreen RNA assay; format: physicochemical; conditions: mRNA-encapsulating liposomal nanoparticles
Description: (§1) Compound 1, compound 2, and comparative compound 1 were each dissolved in an ethanol solution, and the resulting solution was mixed with solutions of DSPC, cholesterol, and DMG-PEG in ethanol in a mole ratio of 50:10:38.5:1.5 to prepare an ethanol lipid solution. mRNA encoding a human growth factor was dissolved in a citrate buffer to prepare an aqueous mRNA solution. Liposomes were prepared by mixing the ethanol lipid solution and the aqueous mRNA solution by microfluidics with a weight ratio of total lipids to mRNA of about 20:1. The ethanol was removed by dialysis against PBS solution to give an mRNA-encapsulating liposomal nanoparticle composition.
The liposome encapsulation efficiency was determined using a Quant-iT RiboGreen RNA assay kit.

[4] = female, BALB/c, mouse, in vivo, 0.5 mg/kg
Description: as §2, §3

[5] = Size and polydispersity index of liposomal nanoparticles by dynamic light scattering; format: physicochemical; conditions: mRNA-encapsulating liposomal nanoparticles; lipid:DSPC:cholesterol:DMG-PEG 50:10:38.5:1.5
Description: as §1
The size and polydispersity index (PDI) of the liposomal nanoparticles were determined using a Malvern Zetasizer Nano ZS in a 173° backscatter detection mode through dynamic light scattering.

[6] = pKa of cations in liposomal nanoparticles, TNS fluorescence analysis; format: physicochemical; conditions: pH at half-maximal TNS fluorescence
Description: as §1
The pKa of cations in the liposomal nanoparticles was determined using a fluorescence analysis based on 6-(p-toluidino)-2-naphthalenesulfonic acid sodium salt (TNS). 150 mM NaCl, 10 mM sodium phosphate, 10 mM sodium citrate, 10 mM sodium borate, and buffers of various pH levels ranging from 3 to 11.5 were prepared. A 300 μM TNS solution was prepared and added to the buffers. The lipid nanoparticles were added to the buffers of different pH levels and thoroughly mixed with them. Then the fluorescence intensity at an excitation wavelength of 325 nm and an emission wavelength of 435 nm was measured at room temperature using a fluorescence microplate reader. A fitting analysis of the fluorescence data was performed, with the pKa being the pH value at which half-maximal fluorescence intensity was produced.

[7] = luciferase mRNA lipid nanoparticles
[8] = luciferase mRNA lipid nanoparticles, tail vein

Compound	concentration at 1 h (in vivo)	half-life (in vivo; Half-life (hours) Liver)	half-life (in vivo; Half-life (hours) Spleen)	in vivo mRNA delivery via intramuscular injection compared with comparative compound 1 ([1]; 24 hours)	in vivo mRNA delivery via intramuscular injection compared with compound 2 ([1]; 24 hours)	Mean protein expression level [1]	tail vein injection in vivo mRNA delivery efficiency compared with comparative compound 1 (luciferase protein; [7])	tail vein injection in vivo mRNA delivery efficiency compared with comparative compound 3 (so in the source) (luciferase protein; [7])	Fluorescence intensity level (p/s) (luciferase protein; [8])	protein expression level relative to lipid nanoparticles of comparative compound 1 (luciferase protein; tail vein)	serum IL-6 concentration compared with comparative compound 1 (interleukin 6 (IL-6))	AUC(0-t) ([2]; cationic lipid in liver, read-out: AUC48 h (h*μg/mL) Liver)	AUC(0-t) ([2]; cationic lipid in spleen, read-out: AUC48 h (h*μg/mL) Spleen)	concentration in the liver compared with comparative compound 1 ([2]; liver samples at the various time points (FIG. 3))	concentration in the spleen compared with comparative compound 1 ([2]; spleen (FIG. 4))	Encapsulation efficiency (%) [3]	time at which completely cleared from plasma [4]	PDI [5]	Size (nm) [5]	pKa [6]
CCCCCCCCCCCOC(=O)CCCCCN(CCO)CCCCCOCC(=O)OC(CCCCCCCC)CCCCCCCC [Compound 1]	1160 ng/mL	34.2 h	31.9 h	significantly outperformed	significantly outperformed	217.3 pg/mg	significantly better	significantly outperformed	1.05E+09 p/s	2.1 times	significantly lower	540 µg·h/mL	493 µg·h/mL	significantly higher	significantly lower	94.6%	4 h	0.08	87.8 nm	6.65
CCCCCCCCCCCOC(=O)CCCCCN(CCO)CCCCCOC(C)(C)C(=O)OC(CCCCCCCC)CCCCCCCC [Compound 4]	–	–	–	–	–	–	significantly outperformed	–	6.78E+08 p/s	–	significantly lower	–	–	–	–	97.3%	–	0.07	74.8 nm	6.3
CCCCCCCCCCCOC(=O)CCCCCN(CCO)CCOCCCCC(=O)OC(CCCCCCCC)CCCCCCCC [Compound 2]	–	–	–	–	–	92.5 pg/mg	–	–	–	–	–	–	–	–	–	97.3%	–	0.07	116.5 nm	6.38
CCCCCCCCCCCOC(=O)CCCCCN(CCO)CCCCCO[C@@H](C)C(=O)OC(CCCCCCCC)CCCCCCCC [Compound 3]	–	–	–	–	–	–	–	–	4.28E+06 p/s	–	–	–	–	–	–	96.7%	–	0.09	79.6 nm	6.49
